Experiments:
[1] = target: T1, human bile salt export pump (BSEP) efflux transporter (Homo sapiens, UniProt O95342); assay: BSEP Vesicular Transport, one concentration inhibition assay; format: biochemical; conditions: human BSEP (HEK293) vesicles, taurocholate 0.2 μM, 4 mM Mg-ATP, 2 replicates
T1 construct: purchased SOLVO Biotechnology Charles River Laboratories, Szeged, Hungary; host or cells: HEK293 (inside out membrane vesicles)
Protocol: The vesicular transport (VT) assays were performed using inside out membrane vesicles derived from HEK293 cells expressing the specified human bile salt export pump (BSEP) efflux transporter. The membrane vesicles were procured from SOLVO Biotechnology Charles River Laboratories, Szeged, Hungary.
The principle of the assay relies on measuring the accumulation of substrate into inside out vesicles containing the efflux transporter. By utilizing inside out vesicles, the ATP-dependent transport of substrate is directed into the vesicular lumen, where low permeability compounds are then essentially trapped.
For the 1 concentration inhibition assay, each compound was tested in the presence of ATP (active transport) in 2 replicates.
The solvent control (DMSO) was tested in the presence of ATP (active transport) and in the presence of AMP (background) in 8 replicates. […]
The samples were then be transferred to a filter plate and washed with 200 μL cold washing mix5-times to remove any free compounds or taurocholate probe substrate. The amount of taurocholate probe substrate inside the filtered vesicles were determined by liquid scintillation counting. […] The amount of taurocholate probe substrate inside the filtered vesicles were determined by liquid scintillation counting.

[2] = tested on: A375 human melanoma cancer cell derived xenografts, intracranial; assay: Example 12 efficacy study, intracranial A375-luciferase CNS model: survival; format: in vivo, BALB/c nude mice; conditions: 10 mg/kg PO/BID; for survival rate / mice that have demonstrated end point cut offs and were terminated: as of day 75; for median survival: dosing stopped on day 120, survival curve up to 200 days; for mice that have demonstrated end point cut offs and were terminated: groups of 8 mice
Protocol: For the efficacy study, agents were tested in A375 human melanoma cancer cell derived xenografts (CDX). This cell line was isolated from the primary melanoma of a person and is known to have a homozygous BRAF V600E mutation. The A375 tumor cells were maintained in vitro in DMEM medium supplemented with 10% fetal bovine serum and 1% Penicillin-Streptomycin at 37° C. in an atmosphere of 5% CO2 in air. The tumor cells were routinely subcultured twice weekly. The cells growing in an exponential growth phase were harvested and counted for tumor inoculation.
For this CNS study, A375 cells with a luciferase tag for tracking tumor cell signal, were injected intracranially into 6-8-week-old female BALB/c nude mice (Zhejiang Vital River Laboratory Animal Co., LTD. Beijing, China). The mice were anaesthetized, restrained, and sterilized prior to surgery. A sagittal cut was made above the anterior parietal and occipital bone with sterilized scalpel, the skull was unrevealed and cleaned with cotton bud, in this case the anterior fontanel could be available. A 2 mm hole was created to the right of the anterior fontanel and 0.5 mm ahead of the coronal on the skull with a cranial drill. Cell suspensions in 20% Matrigel were mixed and aspirated into injector carefully to avoid bubbles and wiped to avoid extracranial tumor genesis. The needle was inserted vertically into the cranial hole and the cell mixture was slowly injected for 2 minutes and held for another minute to decrease the drainage of the cell suspension. The wound was closed, and a subcutaneous injection of 5 mg/kg Meloxicam was given to relieve the pain and continued for 3 days. The mice were monitored closely until they woke up after the surgery. During the study, the care and use of animals was conducted in accordance with the regulations of the Association for Assessment and Accreditation of Laboratory Animal Care (AAALAC). After inoculation, the animals were checked daily for morbidity and mortality. At the time of routine monitoring, the animals would be checked for any effects of tumor growth and treatments on normal behavior such as mobility, food and water consumption, body weight gain/loss, eye/hair matting, and any other abnormal effect.
The administration of the test agents began three days after inoculation. CNS tumor-bearing mice were randomly assigned to groups of 8 mice and administered Compound 26 at 10 mg/kg orally (PO) twice a day (BID), Compound 141 at 10 mg/kg PO/BID, encorafenib at 35 mg/kg once a day orally, (PO/QD), or the vehicle alone PO/BID. Measurements for the presence of the A375 luciferase (CRL-1619-LUC2, ATCC, Manassas, VA, USA) cells within the CNS were done with IVIS Lumina III machine. Images were collected twice weekly to follow the growth of the models. The tumor-bearing mice were weighed and intraperitoneally administered luciferin (Perkin Elmer Inc-122799) at a dosage of 150 mg/kg. After 10 min, mice were pre-anesthetized with the mixture gas of oxygen and isoflurane. The bioluminescence value at 15 min post luciferin injection was recorded as the final value and plotted. The endpoint for individual mice was reached when the mouse body weight decreased by 20% when compared to their starting weight.

[3] = Human dose projections for Compound 26 (allometry, PBPK model), Example 15
Text: The first-in-human dose projections for Compound 26 were made using prediction models. These models utilized experimentally determined physicochemical and ADME parameters relevant to Compound 26. The in vivo plasma clearance (Cl) and volume of distribution (Vdss) values obtained across different preclinical species (mouse, rat, dog and monkey) were scaled to predict human values using allometry. […] In addition, the human efficacious AUC (area under the concentration curve) was derived from a PKPD efficacy study in a tumor bearing mouse model. […] With these inputs a pharmacokinetic model (PBPK) was developed to project first in human BID dose. The oral bioavailability data for Compound 26 from preclinical species, mouse, rat, dog and monkey was simulated in the PBPK model for that species, to build confidence in the human PBPK model.

T1 sequence (O95342 whole entry): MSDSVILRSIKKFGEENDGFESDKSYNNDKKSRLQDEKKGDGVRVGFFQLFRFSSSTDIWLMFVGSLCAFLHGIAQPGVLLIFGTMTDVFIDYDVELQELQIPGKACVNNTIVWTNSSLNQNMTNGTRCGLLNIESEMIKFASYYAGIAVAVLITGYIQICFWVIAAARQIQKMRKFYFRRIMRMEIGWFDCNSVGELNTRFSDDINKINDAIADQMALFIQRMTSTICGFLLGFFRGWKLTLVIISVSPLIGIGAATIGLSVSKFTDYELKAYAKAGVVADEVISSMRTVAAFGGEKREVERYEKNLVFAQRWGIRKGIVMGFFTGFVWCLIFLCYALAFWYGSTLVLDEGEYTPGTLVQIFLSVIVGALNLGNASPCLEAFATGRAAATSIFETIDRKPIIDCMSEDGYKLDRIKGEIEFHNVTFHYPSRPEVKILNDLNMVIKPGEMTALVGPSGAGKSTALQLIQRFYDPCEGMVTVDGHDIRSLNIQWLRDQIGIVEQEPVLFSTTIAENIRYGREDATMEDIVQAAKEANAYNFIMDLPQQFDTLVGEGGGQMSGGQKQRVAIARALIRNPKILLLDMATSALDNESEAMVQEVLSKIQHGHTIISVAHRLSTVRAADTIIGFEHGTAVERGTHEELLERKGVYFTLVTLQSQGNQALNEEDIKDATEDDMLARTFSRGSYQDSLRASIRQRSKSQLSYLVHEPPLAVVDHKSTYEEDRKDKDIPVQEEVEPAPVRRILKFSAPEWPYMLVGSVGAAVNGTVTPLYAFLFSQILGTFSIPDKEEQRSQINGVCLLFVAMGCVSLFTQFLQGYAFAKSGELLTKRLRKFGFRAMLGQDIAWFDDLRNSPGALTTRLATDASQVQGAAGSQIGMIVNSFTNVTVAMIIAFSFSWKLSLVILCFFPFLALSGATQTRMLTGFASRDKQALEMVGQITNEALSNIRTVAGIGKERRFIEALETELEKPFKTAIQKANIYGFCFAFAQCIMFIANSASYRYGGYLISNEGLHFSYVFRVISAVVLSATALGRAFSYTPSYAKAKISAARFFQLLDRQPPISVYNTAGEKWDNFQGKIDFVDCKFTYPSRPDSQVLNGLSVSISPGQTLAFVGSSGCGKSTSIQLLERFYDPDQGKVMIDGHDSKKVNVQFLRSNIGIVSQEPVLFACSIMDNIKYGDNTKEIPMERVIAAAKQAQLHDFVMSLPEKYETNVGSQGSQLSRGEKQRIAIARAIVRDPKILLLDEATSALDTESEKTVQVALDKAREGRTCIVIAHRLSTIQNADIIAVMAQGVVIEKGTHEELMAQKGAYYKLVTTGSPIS

Structure (SMILES) | BSEP Inhibition SD Inhibition % [1] | survival rate [2] | median survival [2] | mice that have demonstrated end point cut offs and were terminated [2] | Human Vdss ([3]; Table 86) | Human CL (PPB corrected plasma clearance) ([3]; allometry from mouse, rat, dog and monkey)
CCN(C)S(=O)(=O)Nc1ccc(F)c(Oc2ccc3ncn([C@H]4COC5(CCN(C6CC(c7cc8c(cc7F)c(N7CCC(=O)NC7=O)nn8C)C6)CC5)C4)c(=O)c3c2)c1C#N (single isomer, unassigned) [Compound 70] | 80% |  |  |  |  | 
CCN(C)S(=O)(=O)Nc1ccc(F)c(Oc2ccc3ncn([C@H]4COC5(CCN(C6CC7(C6)CN(c6cc8c(cc6F)c(N6CCC(=O)NC6=O)nn8C)C7)CC5)C4)c(=O)c3c2)c1C#N [Compound 26, (3R)-3-[6-[2-cyano-3-[[ethyl(methyl)sulfamoyl]amino]-6-fluoro-phenoxy]-4-oxo-quinazolin-3-yl]-8-[2-[3-(2,4-dioxohexahydropyrimidin-1-yl)-5-fluoro-1-methyl-indazol-6-yl]-2-azaspiro[3.3]heptan-6-yl]-1-oxa-8-azaspiro[4.5]decane] |  | 75% | 91 days | two | 0.50 L/kg | 0.88 mL/min/kg
CCN(C)S(=O)(=O)Nc1ccc(F)c(Oc2ccc3ncn(C4CC5(CCN(C6CC7(C6)CN(c6cc8c(cc6F)c(N6CCC(=O)NC6=O)nn8C)C7)CC5)C4)c(=O)c3c2)c1C#N (stereo not drawn) [Compound 141, 6-[2-cyano-3-[[ethyl(methyl)sulfamoyl]amino]-6-fluoro-phenoxy]-3-[7-[2-[3-(2,4-dioxohexahydropyrimidin-1-yl)-5-fluoro-1-methyl-indazol-6-yl]-2-azaspiro[3.3]heptan-6-yl]-7-azaspiro[3.5]nonan-2-yl]-4-oxo-quinazoline] |  | 75% | 89.5 days | 2 mice |  | 

Source: US20260297060A1, “COMPOUNDS FOR THE DEGRADATION OF MUTANT BRAF” (C4 THERAPEUTICS, INC., priority 2023, published 2026)
